One assay relates to PC-3 (prostate). The experiment in a line: Sulphorhodamine B cytotoxicity assay, PC-3. The assay is classed as cell-based, human. Also on record: key to Human cancer cell lines IC50, PC-3 (prostate): Inactive: inactive, if IC50 > 100 μM. Conditions: SRB assay, 48 hours incubation. In short, it runs like this:
(§1)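 Cells grown in RPMI-1640 with 10% FBS for 24 h, then exposed to compounds (DMSO stocks diluted in medium) for 48 h at 37 °C, 5% CO2. TCA-fixed cells stained with sulforhodamine B and the solubilised dye read at 540 nm as a measure of growth.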
For orientation: In SRB staining, fixed cells bind dye roughly in proportion to their protein.

Another assay deals with tubulin protein. The experiment in a line: In-vitro tubulin polymerisation inhibition assay. It is filed as biochemical. In short, it runs like this:
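Tubulin (3 mg/mL) in PIPES buffer pH 6.9 with MgCl2, EGTA, 1 mM GTP and 15% glycerol was incubated at 37 °C with varying compound concentrations. Polymerization was followed by absorbance at 340 nm every min for 1 h. IC50 is the concentration halving polymerization rate, from dose-dependent analysis.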

The subject of assay [1] is various human cancer cell lines. The experiment in a line: Cytotoxicity against various human cancer cell lines (summary statements). It is filed as cell-based. The procedure:
The benzylidene analogues were evaluated by Sulphorhodamine B Assay as per reported method [Skehan et al., J. Natl. Cancer Inst. 1990, 82, 1107]. The human cancer cell lines procured from National Cancer institute, Frederick, U.S.A. were used in present study. Cells were grown in tissue culture flasks in complete growth medium (RPMI-1640 medium with 2 mM glutamine, pH 7.4 supplemented with 10% fetal bovine serum, 100 μg/ml streptomycin and 100 units/ml penicillin) in a carbon dioxide incubator (37° C., 5% CO2, 90% RH). The cells at subconfluent stage were harvested from the flask by treatment with trypsin (0.05% in PBS (pH 7.4) containing 0.02% EDTA). Cells with viability of more than 98%, as determined by trypan blue exclusion, were used for determination of cytotoxicity. The cell suspension required concentration of cells was prepared in complete growth medium. Stock solution of 2×10^−2 M of compounds were prepared in DMSO and further dilution was carried out complete growth medium containing 50 μg/ml of gentamycin to obtained working test solution of required concentration. In vitro cytotoxicity against various human cancer cell lines was determined using 96-well cell culture plates. […] Cell growth was measured by staining with sulforhodamine B dye. […] The optical density (OD) was recorded on ELISA reader at 540 nm. […]

For another assay, the system named is HCT (Colon). The experiment in a line: Sulphorhodamine B cytotoxicity assay, HCT. The assay is classed as cell-based, human. The gist of the method: as §1
The test system of a further assay is THP-1 (Leukemia). Kind of assay: Sulphorhodamine B cytotoxicity assay, THP-1. It is filed as cell-based, human. The gist of the method: as §1
The next assay concerns HeLa (Cervix). The experiment in a line: Sulphorhodamine B cytotoxicity assay, HeLa. The assay is classed as cell-based, human. The conditions noted are these: Homo sapiens, HeLa; SRB assay, 48 hours incubation; read-out: Human cancer cell lines IC50, HeLa (Cervix). In short, it runs like this: as §1

SMILES strings stand for the structures. “Also recorded” adds a separate entry of the source.

Broadly, the IC50 is the concentration that gives 50% inhibition. In the case of `COc1cc(C2/C(=C/c3ccc4c(c3)OCO4)C(=O)c3cc(OC)c(OC)c(OC)c32)cc(OC)c1OC` (racemic) [Compound 8, 2-(3,4-Methylenedioxybenzylidine), 3-(3,4,5-trimethoxyphenyl), 4,5,6-trimethoxyindanone], the “Human cancer cell lines IC50, PC-3 (prostate)” value in the assay with PC-3 (prostate) is on record as “Inactive”. Besides, in the assay with tubulin protein, the “inhibition of tubulin polymerisation, in words” value is “tubulin polymerisation inhibition; also recorded: strong inhibition”. In addition, the IC50 in the assay on tubulin protein (read-out: Tubulin polymerisation inhibition IC50, tubulin 3 mg/mL, 37° C., 340 nm, 1 h) amounted to 0.63 µM; in the assay on HCT (Colon) (Homo sapiens, SRB assay, 48 hours incubation, read-out: Human cancer cell lines IC50, HCT (Colon)), 0.1 µM; in the assay on THP-1 (Leukemia) (Homo sapiens, THP-1, SRB assay, 48 hours incubation, read-out: Human cancer cell lines IC50, THP-1 (Leukemia)), 4.9 µM; in the assay with HeLa (Cervix), 23 µM. For the same compound, the “anticancer activity against human cancer cell lines, in words” value in assay [1] was “exhibits anticancer activity”. Further, the “activity against HCT (Colon) cancer cell line, in words” value in the assay with HCT (Colon) is on record as “better activity”. Besides, in the assay with THP-1 (Leukemia), the “activity against leukemia cell lines (THP), in words” value was “potent activity”.

(Values after US8633242B2, “Benzylidene indanones and processes for preparation and use thereof” (Council of Scientific and Industrial Research, priority 2011, dated 2014).)
